This note sets out measurements from US7935699B2, “Pyrazole glucokinase activators” (Hoffmann-La Roche Inc., priority 2006, dated 2011).

Assay [1] has as its system Diet-Induced Obese (DIO) C57BL/6J mice. Kind of assay: Glucokinase activator in vivo screen, blood glucose in DIO mice. The conditions noted are these: Mus musculus; 2 hours post 25 mg/kg oral dose in DIO mice, vs control; read-out: % gluc @ 2 H (% glucose lowering vs control). The method, then: Glucokinase Activator in vivo Screen Protocol in Lean and Diet Induced Obese Mice: Lean or Diet-Induced Obese (DIO) C57BL/6J mice were orally dosed via gavage with Glucokinase (GK) activator (50 mg/kg body weight for lean mice, 25 mg/kg body weight for DIO mice) following a two hour fasting period. Blood glucose determinations were made four times during the six hour post-dose study period.
C57Bl/6J mice were obtained from Jackson Laboratory (Bar Harbor, Me.) and were maintained in a light-dark cycle with lights on from 0600-1800 hr. For studies in lean mice, the mice were received at age six weeks and given ad libitum access to control diet (LabDiet 5001 chow, PMI Nutrition, Brentwood, Mo.), and were at least age 11 weeks at the time of study. For studies in the DIO model, the mice were received at age five weeks and given ad libitum access to Bio-Serv F3282 High Fat Diet (Frenchtown, N.J.), and were at least age 16 weeks at the time of study. The experiments were conducted during the light phase of the light-dark cycle. Mice (n=6) are weighed and fasted for a two hour period prior to oral treatment. GK activators are formulated in Gelucire vehicle (Ethanol:Gelucire44/14:PEG400q.s. 4:66:30 v/w/v. For studies in lean mice, the mice were dosed orally with 5.0 μL per gram of body weight with 5 ml/kg×10.0 mg/ml formulation to equal a 50 mg/kg dose. For studies in DIO mice, the mice were dosed orally with 5.0 μL per gram of body weight with […] formulation to equal a 25 mg/kg dose. Immediately prior to dosing, a pre-dose (time zero) blood glucose reading was acquired by snipping off a small portion of the animal's tail (˜1 mm) and collecting 15 μL blood into a heparinized capillary tube for analysis. Following GK activator administration, additional blood glucose readings were taken at 2, 4 and 6 hours post dose from the same tail wound. Results were interpreted by comparing the mean blood glucose values of six vehicle treated mice with six GK activator treated mice over the six hour study duration.

Assay [2] deals with T1, Recombinant human liver GK1 (GST-GK) (Homo sapiens, UniProt P35557).
T1 construct: made in house; host or cells: E. coli
T1 sequence (P35557 1-466 isoform P35557-2): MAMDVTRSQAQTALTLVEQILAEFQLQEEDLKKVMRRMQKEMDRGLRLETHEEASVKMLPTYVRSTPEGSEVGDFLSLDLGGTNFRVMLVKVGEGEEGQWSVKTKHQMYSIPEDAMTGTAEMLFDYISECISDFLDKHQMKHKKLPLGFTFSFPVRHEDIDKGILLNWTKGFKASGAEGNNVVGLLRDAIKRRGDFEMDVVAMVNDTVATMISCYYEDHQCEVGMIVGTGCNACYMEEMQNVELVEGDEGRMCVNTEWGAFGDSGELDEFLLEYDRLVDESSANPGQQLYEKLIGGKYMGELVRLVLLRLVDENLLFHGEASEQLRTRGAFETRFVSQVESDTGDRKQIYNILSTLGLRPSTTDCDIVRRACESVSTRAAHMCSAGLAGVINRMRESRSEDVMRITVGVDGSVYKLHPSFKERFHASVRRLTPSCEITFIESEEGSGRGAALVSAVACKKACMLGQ
Briefly: Glucokinase in vitro assay (G6PDH-coupled, NADH at OD340). It is filed as biochemical. The following applies: 25° C., 5 mM D-glucose, 10% DMSO, GST-GK. The method, then:
Glucokinase In Vitro Assay Protocol: Glucokinase (GK) was assayed by coupling the production of glucose-6-phosphate to the generation of NADH with glucose-6-phosphate dehydrogenase (G6PDH, 0.75-1 kunits/mg; Boehringer Mannheim, Indianapolis, Ind.) from Leuconostoc mesenteroides as the coupling enzyme (Scheme 2).
Recombinant human liver GK1 was expressed in E. coli as a glutathione S-transferase fusion protein (GST-GK) [Liang et al, 1995] and was purified by chromatography over a glutathione-Sepharose 4B affinity column using the procedure provided by the manufacturer (Amersham Pharmacia Biotech, Piscataway, N.J.).
The assay was conducted at 25° C. in a flat bottom 96-well tissue culture plate from Costar (Cambridge, Mass.) with a final incubation volume of 120 μL. The incubation reaction contained the following: 25 mM Hepes buffer (pH 7.1), 25 mM KCl, 5 mM D-glucose, 1 mM ATP, 1.8 mM NAD, 2 mM MgCl2, 1 μM sorbitol-6-phosphate, 1 mM dithiothreitol, test drug or 10% DMSO, 1.8 unit/ml G6PDH, and GK (see below). All organic reagents were >98% pure and were from Boehringer Mannheim with the exceptions of D-glucose and Hepes which were from Sigma Chemical Co, St Louis, Mo. Test compounds were dissolved in DMSO and were added to the incubation reaction minus GST-GK in a volume of 12 μL to yield a final DMSO concentration of 10%. This mix was pre-incubated in the temperature controlled chamber of a SPECTRAmax 250 microplate spectrophotometer (Molecular Devices Corporation, Sunnyvale, Calif.) for 10 minutes to allow temperature equilibrium and then the reaction was started by the addition of 20 μL GST-GK.
After addition of enzyme, the increase in optical density (OD) at 340 nm was monitored over a 10 minute incubation period as a measure of GK activity. Sufficient GST-GK was added to produce an increase in OD340 of 0.08 to 0.1 units over the 10 minute incubation period in wells containing 10% DMSO but no test compound. Preliminary experiments established that the GK reaction was linear over this period of time even in the presence of activators that produced a 5-fold increase in GK activity. The GK activity in control wells was compared with the activity in wells containing test GK activators, and the concentration of activator that produced a 50% increase in the activity of GK, i.e., the SC1.5, was calculated.

With `COCCn1ccc(NC(=O)[C@H](CC2CCCC2)c2cccc(C(F)(F)F)c2)n1` [Example 84, 3-Cyclopentyl-N-[1-(2-methoxy-ethyl)-1H-pyrazol-3-yl]-2(R)-(3-trifluoromethyl-phenyl)-propionamide], in assay [1], the change in vivo at 25 mg/kg was -24.5%.

Take `O=C(Nc1ccn(CCCO)n1)[C@H](CC1CCCC1)c1cccc(C(F)(F)F)c1` [Example 85, 3-Cyclopentyl-N-[1-(3-hydroxy-propyl)-1H-pyrazol-3-yl]-2(R)-(3-trifluoromethyl-phenyl)-propionamide]: the “SC1.5 (concentration of activator that produced a 50% increase in the activity of GK)” value in assay [2] worked out at 0.779 µM. For the same molecule, in assay [1], the change in vivo at 25 mg/kg was -20.5%.
